Entries after “also recorded” stand apart in the source; their conditions may differ. Non-standard residues stand in square brackets, D forms with d. No end group written: not given here. Bip = N[C@@H](Cc1ccc(-c2ccccc2)cc1)C(=O)O
Legend:
[1] = tested on: phosphatidylserine (PS)-containing liposomes (PC/PS vesicles); experiment: Liposome binding assay (Trp-to-dansyl FRET) with large unilamellar vesicles; set-up: key to Liposome binding assay: “Y” means PS-selective (or apoptotic cell-specific) binding is observed; N means no or insignificant membrane binding is observed; “Nonselective” refers to membrane binding independent on PS; details: for Liposome binding assay: dansyl FRET assay; for binding to lipid vesicles of either composition: vesicles with and without PS; for binding to PC/PS liposomes (sensitized dansyl emission at 520 nm): PC/PS vesicles; for PS-selective binding in the presence of cholesterol: cholesterol-containing liposomes with PS vs without PS
Experimental: The binding of cLac to lipid membrane can be analyzed by any method known it the art. For example, by the fluorescence assay (Trp-to-dansyl FRET) described herein. Basically, large unilamellar vesicles (100 nm in diameter) were prepared with phosphatidylcholine (PC) and varied percentages of PS. All vesicles contained 5% dansyl-labeled PE to serve as a reporting group. The peptide-vesicle binding was monitored by the fluorescence resonance energy transfer (FRET) from Trp to the dansyl group. Emission of sensitized dansyl is monitored at 520 nm and Trp emission is monitored near 350 nm. Membrane binding of cLac to the PC/PS vesicles produces a sensitized dansyl emission at 520 nm with a concurrent decrease of Trp emission near 350 nm.
The peptide-membrane binding was evaluated via a fluorescence assay: large unilamellar vesicles (100 nm in diameter) were prepared with PC and varied percentages of PS. All vesicles contained 5% dansyl-labeled PE to serve as a reporting group. The peptide-vesicle binding was monitored by the fluorescence resonance energy transfer (FRET) from Trp to the dansyl group.

[2] = tested on: apoptotic HeLa and Jukat cells (STS or CPT treated); experiment: Cell imaging of apoptotic cells by epifluorescence microscopy; type: cell-based, human; set-up: key to Cell imaging: “Y” means PS-selective (or apoptotic cell-specific) binding is observed; N means no or insignificant membrane binding is observed; “Nonselective” refers to membrane binding independent on PS; details: for Cell imaging: standard epifluorescence microscopy
Experimental: The fluorescent derivative was tested for its potential to stain apoptotic cells. Cultured HeLa and Jukat cells were treated with the potent apoptogen staurosporine (STS) or camptothecin (CPT) respectively to trigger apoptosis. The experimental conditions were optimized with the FITC-labeled annexin V and the membrane impermeable DNA intercalator propidium iodine (PI). The treatment with 0.1 μM STS or CPT for 4 hours gave a large population of early apoptotic cells (data not shown), which were stained with annexin, but not PI. This indicates increased presence of PS exposure on the outer membrane leaflet of the cells experiencing early apoptosis. […] As negative controls, both fluorescein alone as well as the FITC-labeled linear precursor of cLac were used to label the apoptotic cells and tested for fluorescence staining. […] This observation is consistent with the previous reports that annexin V preferentially binds to cells at the early stages of apoptosis. Since these early apoptotic cells hold their membrane integrity (PI negative), it is believed cLac2-Fl stained the cells by binding to their outer surfaces, presumably to PS.

PS = details: without cofactors; cited from earlier work

Row | Liposome binding assay [1] | Molecule | other results
1 | N | Lac-1: cLac variant peptide, SEQ. ID. NO. 35 (WGHIQGRGGGD) | –
2 | N | Lac-2: cLac variant peptide, SEQ. ID. NO. 37 (WGHIQGGRGGGD) | –
3 | Nonselective | Lac-Tph: cLac variant peptide, SEQ. ID. NO. 39 (WFGHIQGGRGGGD) | –
4 | Y | WBipGHIQAGRGGGD (cyclo(W[Bip]GHIQAGRGGGD); SMILES CC[C@H](C)[C@@H]1NC(=O)[C@H](Cc2c[nH]cn2)NC(=O)CNC(=O)[C@H](Cc2ccc(-c3ccccc3)cc2)NC(=O)[C@H](Cc2c[nH]c3ccccc23)NC(=O)[C@H](CC(=O)O)NC(=O)CNC(=O)CNC(=O)CNC(=O)[C@H](CCCNC(=N)N)NC(=O)CNC(=O)[C@H](C)NC(=O)[C@H](CCC(N)=O)NC1=O) [cLac-A1] | –
5 | Y | WBipGHIQGARGGGD (cyclo(W[Bip]GHIQGARGGGD); SMILES CC[C@H](C)[C@@H]1NC(=O)[C@H](Cc2c[nH]cn2)NC(=O)CNC(=O)[C@H](Cc2ccc(-c3ccccc3)cc2)NC(=O)[C@H](Cc2c[nH]c3ccccc23)NC(=O)[C@H](CC(=O)O)NC(=O)CNC(=O)CNC(=O)CNC(=O)[C@H](CCCNC(=N)N)NC(=O)[C@H](C)NC(=O)CNC(=O)[C@H](CCC(N)=O)NC1=O) [cLac-A2] | –
6 | Y | WBipGHIQGGRGGGGD (cyclo(W[Bip]GHIQGGRGGGGD); SMILES CC[C@H](C)[C@@H]1NC(=O)[C@H](Cc2c[nH]cn2)NC(=O)CNC(=O)[C@H](Cc2ccc(-c3ccccc3)cc2)NC(=O)[C@H](Cc2c[nH]c3ccccc23)NC(=O)[C@H](CC(=O)O)NC(=O)CNC(=O)CNC(=O)CNC(=O)CNC(=O)[C@H](CCCNC(=N)N)NC(=O)CNC(=O)CNC(=O)[C@H](CCC(N)=O)NC1=O) [cLac-24G] | –
7 | Y | WBipGHIQGGRGGGGGD (cyclo(W[Bip]GHIQGGRGGGGGD); SMILES CC[C@H](C)[C@@H]1NC(=O)[C@H](Cc2c[nH]cn2)NC(=O)CNC(=O)[C@H](Cc2ccc(-c3ccccc3)cc2)NC(=O)[C@H](Cc2c[nH]c3ccccc23)NC(=O)[C@H](CC(=O)O)NC(=O)CNC(=O)CNC(=O)CNC(=O)CNC(=O)CNC(=O)[C@H](CCCNC(=N)N)NC(=O)CNC(=O)CNC(=O)[C@H](CCC(N)=O)NC1=O) [cLac-25G] | –
8 | Y | WBipGHIQGRGGGD (cyclo(W[Bip]GHIQGRGGGD); SMILES CC[C@H](C)[C@@H]1NC(=O)[C@H](Cc2c[nH]cn2)NC(=O)CNC(=O)[C@H](Cc2ccc(-c3ccccc3)cc2)NC(=O)[C@H](Cc2c[nH]c3ccccc23)NC(=O)[C@H](CC(=O)O)NC(=O)CNC(=O)CNC(=O)CNC(=O)[C@H](CCCNC(=N)N)NC(=O)CNC(=O)[C@H](CCC(N)=O)NC1=O) [cLac-13G] | –
9 | Y | WBipGHIQGppGRGGAD [cLac-PPG-2] | binding to PC/PS liposomes (sensitized dansyl emission at 520 nm) ([1]; FRET): selective binding; PS-selective binding in the presence of cholesterol [1]: selective binding; Cell imaging [2]: Y
10 | Y | WBipGHppGQGGRGGGD [cLac-PPG-0] | binding to PC/PS liposomes (sensitized dansyl emission at 520 nm) ([1]; FRET): selective binding; PS-selective binding in the presence of cholesterol [1]: selective binding; Cell imaging [2]: Y
11 | N | cLac-1: first cyclic lactadherin mimetic with Trp and Phe as membrane insertion motif, SEQ. ID. NO. 38 (WFGHIQGGRGGGD; cyclic) | binding to lipid vesicles of either composition ([1]; FRET): no binding
12 | N | cLac-22G: cLac variant with di-Gly in linker II, SEQ. ID. NO. 42 (WFGHIQGGRGGD; cyclic) | dansyl emission / membrane binding compared among linker-length variants ([1]; Trp-to-dansyl FRET, Gly number of linker II varied 2 to 5, or linker I varied): lowest
13 | N | cLac-A3: alanine for glycine linker variant G10A, SEQ. ID. NO. 40 (WFGHIQGGRAGGD; cyclic) | –

Continued, molecule first:

Row | Molecule | Liposome binding assay [1] | other results
14 | D-WBipGHIQGGRGGGD (cyclo([dW][Bip]GHIQGGRGGGD); SMILES CC[C@H](C)[C@@H]1NC(=O)[C@H](Cc2c[nH]cn2)NC(=O)CNC(=O)[C@H](Cc2ccc(-c3ccccc3)cc2)NC(=O)[C@@H](Cc2c[nH]c3ccccc23)NC(=O)[C@H](CC(=O)O)NC(=O)CNC(=O)CNC(=O)CNC(=O)[C@H](CCCNC(=N)N)NC(=O)CNC(=O)CNC(=O)[C@H](CCC(N)=O)NC1=O) [cLac-D-Trp] | Y | –
15 | DWBipGHIQGGRGGG (DW[Bip]GHIQGGRGGG; not fully specified) [cLac-linear, ID; NO; 43] | N | binding to lipid vesicles of either composition ([1]; FRET): binds to neither type of vesicle; Cell imaging [2]: N
16 | Lac-1R: cLac variant peptide, SEQ. ID. NO. 36 (GGGRGQIHGWD) | N | –
17 | WBipGHIQGGGRGGGD (cyclo(W[Bip]GHIQGGGRGGGD); SMILES CC[C@H](C)[C@@H]1NC(=O)[C@H](Cc2c[nH]cn2)NC(=O)CNC(=O)[C@H](Cc2ccc(-c3ccccc3)cc2)NC(=O)[C@H](Cc2c[nH]c3ccccc23)NC(=O)[C@H](CC(=O)O)NC(=O)CNC(=O)CNC(=O)CNC(=O)[C@H](CCCNC(=N)N)NC(=O)CNC(=O)CNC(=O)CNC(=O)[C@H](CCC(N)=O)NC1=O) [cLac-33G] | Y | –
18 | WBipGHIQGGRGGAD (cyclo(W[Bip]GHIQGGRGGAD); SMILES CC[C@H](C)[C@@H]1NC(=O)[C@H](Cc2c[nH]cn2)NC(=O)CNC(=O)[C@H](Cc2ccc(-c3ccccc3)cc2)NC(=O)[C@H](Cc2c[nH]c3ccccc23)NC(=O)[C@H](CC(=O)O)NC(=O)[C@H](C)NC(=O)CNC(=O)CNC(=O)[C@H](CCCNC(=N)N)NC(=O)CNC(=O)CNC(=O)[C@H](CCC(N)=O)NC1=O) [cLac-A5] | Y | –
19 | WBipGHIQGGRGGGD (cyclo(W[Bip]GHIQGGRGGGD); SMILES CC[C@H](C)[C@@H]1NC(=O)[C@H](Cc2c[nH]cn2)NC(=O)CNC(=O)[C@H](Cc2ccc(-c3ccccc3)cc2)NC(=O)[C@H](Cc2c[nH]c3ccccc23)NC(=O)[C@H](CC(=O)O)NC(=O)CNC(=O)CNC(=O)CNC(=O)[C@H](CCCNC(=N)N)NC(=O)CNC(=O)CNC(=O)[C@H](CCC(N)=O)NC1=O) [cLac-2, biphenylalanine replaces Phe] | Y | binding to PC-alone liposomes ([1]; FRET, PC-alone liposomes): no binding; binding to PC/PS liposomes (sensitized dansyl emission at 520 nm) ([1]; FRET): clearly elicits a sensitized dansyl emission; also recorded: only with PC/PS liposomes; binding to cholesterol-containing membranes without PS ([1]; cholesterol-containing PC liposomes): non-specific binding; PS-selective binding in the presence of cholesterol [1]: able to differentiate PS-containing vesicles from PS-absent vesicles; dansyl fluorescence of vesicles containing 20% PS relative to 5% PS ([1]; peptide at saturating concentration 50 μM): close to four-fold; Kd ([1]; titration with PC/PS vesicles, sensitized dansyl emission, read-out: apparent dissociation constant (Kd)): ~15 µM
20 | cLac-A4: alanine for glycine linker variant G11A, SEQ. ID. NO. 41 (WFGHIQGGRGAGD; cyclic) | N | –
21 | Lactadherin: 47 kDa glycoprotein, natural PS-binding protein (protein, UniProt Q08431 24-387, looked up) Lactadherin: LDICSKNPCHNGGLCEEISQEVRGDVFPSYTCTCLKGYAGNHCETKCVEPLGLENGNIANSQIAASSVRVTFLGLQHWVPELARLNRAGMVNAWTPSSNDDNPWIQVNLLRRMWVTGVVTQGASRLASHEYLKAFKVAYSLNGHEFDFIHDVNKKHKEFVGNWNKNAVHVNLFETPVEAQYVRLYPTSCHTACTLRFELLGCELNGCANPLGLKNNSIPDKQITASSSYKTWGLHLFSWNPSYARLDKQGNFNAWVAGSYGNDQWLQVDLGSSKEVTGIITQGARNFGSVQFVASYKVAYSNDSANWTEYQDPRTGSSKIFPGNWDNHSHKKNLFETPILARYVRILPVAWHNRIALRLELLGC | – | affinity of binding to PS (PS): nanomolar
22 | FITC-labeled annexin V: naturally occurring 36 kDa PS-binding protein, FITC-labeled (protein, UniProt P08758 2-320, looked up, FITC label) Annexin A5: AQVLRGTVTDFPGFDERADAETLRKAMKGLGTDEESILTLLTSRSNAQRQEISAAFKTLFGRDLLDDLKSELTGKFEKLIVALMKPSRLYDAYELKHALKGAGTNEKVLTEIIASRTPEELRAIKQVYEEEYGSSLEDDVVGDTSGYYQRMLVVLLQANRDPDAGIDEAQVEQDAQALFQAGELKWGTDEEKFITIFGTRSVSHLRKVFDKYMTISGFQIEETIDRETSGNLEQLLLAVVKSIRSIPAYLAETLYYAMKGAGTDDHTLIRVMVSRSEIDLFNIRKEFRKNFATSLYSMIKGDTSGDYKKALLLLCGEDD | – | staining of apoptotic cells ([2]; 0.1 μM STS or CPT for 4 hours, early apoptotic cells): stained

Reference: patent US9133245B2, “Cyclic lactadherin peptide mimetics and their uses” (TRUSTEES OF BOSTON COLLEGE, priority 2011, dated 2015)
